PubChem BioAssay (NCI)
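Interpolation was linear, between the two tested concentrations surrounding the appropriate level; five concentrations were tested over 48 hours in 96-well plates. The concentration for full growth arrest is given as TGI.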

Tests used:
Assay in all cases: NCI tumour cell line growth inhibition, 48 h
[1] = tested on: UACC-62 melanoma
[2] = tested on: MDA-MB-231 breast
[3] = tested on: HS 578T breast
[4] = tested on: NCI/ADR-RES ovarian
[5] = tested on: ACHN renal
[6] = tested on: HT29 colon
[7] = tested on: CCRF-CEM leukemia
[8] = tested on: A549 NSCLC
[9] = tested on: UACC-257 melanoma
[10] = tested on: OVCAR-5 ovarian
[11] = tested on: NCI-H460 lung

Row | SMILES | TGI [1] | TGI [2] | TGI [3] | TGI [4] | TGI [5] | TGI [6] | TGI [7] | TGI [8] | TGI [9] | TGI [10] | TGI [11]
1 | CC(C)Oc1c(-c2ccc(F)cc2)c(O)c2c3c1oc(=O)n3C=CC2C (configuration not stated) | 29.4 µM | 28.7 µM | 52.8 µM | 29.3 µM | 27.6 µM | 30.2 µM | 29.8 µM | 28 µM | 26.3 µM | 62.2 µM | 29.1 µM
2 | C=C1C[C@H](O)[C@H](Br)C(C)(C)C12CCC(C)(Cl)C(Br)C2 (some centres not stated) | 15.6 µM | 11.3 µM | 23.6 µM | 20.7 µM | 14.8 µM | 0.895 µM | 75 µM | 9.12 µM | 3.06 µM | 4.25 µM | 9.95 µM
3 | OC1CSc2nc3ccccc3n2C1 (configuration not stated) | > 100 µM | > 100 µM | 77.7 µM | > 100 µM | > 100 µM | > 100 µM | > 100 µM | > 100 µM | > 100 µM | > 100 µM | > 100 µM
4 | COc1ccc(-c2oc3c(OC)c(OC)cc(O)c3c(=O)c2OC)cc1 | > 100 µM | > 100 µM | > 100 µM | > 100 µM | > 100 µM | > 100 µM | > 100 µM | > 100 µM | > 100 µM | > 100 µM | > 100 µM
5 | CC(=O)N(C(C)=O)c1cc2c3c(c1)CCCN3CCC2 | > 10 µM | > 10 µM | > 10 µM | > 10 µM | > 10 µM | > 10 µM | > 10 µM | > 10 µM | > 10 µM | > 10 µM | > 10 µM
6 | O=c1cc(-c2cccnc2)[nH]c2cc3c(cc12)OCO3 | > 100 µM | > 100 µM | 69.6 µM | 40 µM | > 100 µM | 59.3 µM | > 100 µM | > 100 µM | > 100 µM | > 100 µM | > 100 µM
7 | Cc1ccc(Nc2nc3c(=O)n(C)c(=O)n(C)c3nc2Nc2ccc(C)cc2)cc1 | 25 µM | 27.1 µM | 79.6 µM | 35.1 µM | 11.8 µM | 23.4 µM | > 100 µM | 52.9 µM | 30.5 µM | 31.2 µM | > 100 µM
8 | CC1(C)N=C(C2CCCN2C(=O)OCc2ccccc2)OC1=O (configuration not stated) | > 100 µM | > 100 µM | > 100 µM | > 100 µM | > 100 µM | > 100 µM | > 100 µM | > 100 µM | > 100 µM | > 100 µM | > 100 µM
9 | CCOC(=O)c1c(NC(=S)Nc2ccccc2)sc2c1CCOC2 | > 100 µM | > 100 µM | > 100 µM | > 100 µM | > 100 µM | > 100 µM | > 100 µM | > 100 µM | > 100 µM | > 100 µM | > 100 µM
10 | Cc1nc2sccn2c1/C=C1/C(=O)Nc2cccc(Cl)c21 | > 100 µM | > 100 µM | > 100 µM | > 100 µM | > 100 µM | > 100 µM | > 100 µM | > 100 µM | > 100 µM | > 100 µM | > 100 µM
11 | O=C1CC(NCc2ccccc2)c2c(Cl)sc(Cl)c21 (configuration not stated) | 24.3 µM | 66.4 µM | > 82.5 µM | > 86.3 µM | 52.8 µM | 74.5 µM | 9.44 µM | > 100 µM | > 63 µM | > 100 µM | > 100 µM
12 | O=C1CC(=O)NC(=NNS(=O)(=O)c2ccc(Cl)cc2)N1 | > 100 µM | > 100 µM | > 100 µM | > 100 µM | > 100 µM | > 100 µM | > 100 µM | > 100 µM | > 100 µM | > 100 µM | > 100 µM
13 | CCO/C=N/C1=C(C#N)SC2=N/C(=C\c3ccccc3)C(=O)N21 | > 100 µM | > 100 µM | > 100 µM | > 100 µM | > 100 µM | > 100 µM | > 100 µM | > 100 µM | > 100 µM | > 100 µM | > 100 µM
14 | O=C(c1cc2c(c3ccccc13)NC1(CCCCC1)N=C2C(F)(F)F)C(F)(F)F | 13.6 µM | 9.83 µM | 29.3 µM | 17 µM | 13.8 µM | 13.4 µM | 13.1 µM | 16.3 µM | 11.3 µM | 21.5 µM | 10.9 µM
15 | Cn1cc(-c2csc(-c3cn(C)c4ccccc34)n2)c2ccccc21 | > 100 µM | 60.1 µM | > 100 µM | > 100 µM | > 100 µM | > 100 µM | > 100 µM | > 100 µM | > 100 µM | > 100 µM | > 100 µM
16 | CCOC(=O)/C=C(/C)Nc1nc2c(c(C(=O)OC)c1C#N)CCCC2 | > 100 µM | > 100 µM | > 100 µM | > 100 µM | > 100 µM | > 100 µM | > 100 µM | > 100 µM | > 100 µM | > 100 µM | > 100 µM
17 | O=C(N/N=C/c1ccccc1)c1cccc2nc3ccccc3nc12 | > 100 µM | > 100 µM | > 72.9 µM | > 100 µM | > 100 µM | > 100 µM | > 100 µM | > 84 µM | > 100 µM | > 100 µM | 31.4 µM
18 | CCCCCCCCCCCCCCCCCCOCC(O)COP(=O)(O)OCC1OC(n2ccc(N)nc2=O)C(O)C1O (configuration not stated) | 70.2 µM | 64.7 µM | > 100 µM | > 100 µM | > 100 µM | 50.7 µM | 18.6 µM | > 100 µM | > 100 µM | > 100 µM | 14.8 µM
19 | O=C(c1ccccc1)N1C(=S)N(c2ccccn2)C(=Nc2ccccc2)C1=Nc1ccccc1 | > 41.3 µM | > 71.9 µM | > 61.8 µM | > 48.3 µM | 35.3 µM | > 100 µM | > 24.7 µM | > 100 µM | > 74.6 µM | > 44.3 µM | > 70.6 µM

Row | SMILES | TGI [1] | TGI [2] | TGI [3] | TGI [4] | TGI [5] | TGI [6] | TGI [7] | TGI [8] | TGI [9] | TGI [10] | TGI [11]
20 | Fc1ccc(C(OCCN2CC3CCC(C2)N3CCCc2ccccc2)c2ccc(F)cc2)cc1 | 21.3 µM | 10.2 µM | 13.6 µM | 15.2 µM | 22.4 µM | 13.7 µM | 15.6 µM | 21.5 µM | 11.9 µM | 23.3 µM | 9.75 µM
21 | CCOP(=O)(OCC)OC1c2[nH]cc(C(=O)OCc3ccccc3)c2-c2cc(C(=O)OC)[nH]c2C1OC (configuration not stated) | > 79.6 µM | 37 µM | > 100 µM | 59.5 µM | 30.5 µM | > 48.4 µM | > 100 µM | > 61.2 µM | > 35 µM | > 96.1 µM | > 100 µM
22 | Cc1ccc(N/C(SCc2ccccc2)=C(\C(Cl)=C(Cl)Cl)[N+](=O)[O-])c(C)c1 | > 100 µM | 34.8 µM | 68.4 µM | 56.5 µM | > 100 µM | > 100 µM | > 100 µM | 90.6 µM | > 100 µM | 89.8 µM | > 100 µM
23 | CCOc1ccc(N/C(=C(/C(Cl)=C(/Cl)NC(C)(C)C)[N+](=O)[O-])n2nnc3ccccc32)cc1 | 65.3 µM | 37.6 µM | 32.6 µM | > 100 µM | > 100 µM | > 100 µM | > 100 µM | > 100 µM | > 100 µM | > 100 µM | > 100 µM
24 | COc1ccc(NC(=S)c2ccoc2C)cc1CC(=O)OC(C)C | > 100 µM | > 100 µM | > 100 µM | 58.7 µM | > 100 µM | 36.3 µM | > 100 µM | > 100 µM | > 100 µM | > 100 µM | > 100 µM
25 | O=C(N/N=C(/COc1ccccc1)N=Cc1cccnc1)c1ccncc1 | > 100 µM | > 100 µM | > 100 µM | > 100 µM | > 100 µM | > 100 µM | > 100 µM | > 100 µM | > 100 µM | > 100 µM | > 100 µM
26 | COC(=O)/C=C1/OC(c2ccc(OC)cc2)=C(Cl)C1=O | 37.9 µM | 26.2 µM | 84 µM | 66.5 µM | 31.8 µM | 36.5 µM | 17.7 µM | 56.4 µM | 49.6 µM | 31.6 µM | 42.9 µM
27 | O=C(OCCNC(=O)N1CC1)OCCNC(=O)N1CC1 | > 10 µM | > 10 µM | > 10 µM | > 10 µM | > 10 µM | > 10 µM | > 10 µM | > 10 µM | > 10 µM | > 10 µM | > 10 µM
28 | Cc1cnc2sn(-c3ccc(Br)cc3)c(=O)c2c1 | > 100 µM | > 100 µM | 88.1 µM | > 100 µM | > 100 µM | 75 µM | 69.7 µM | > 100 µM | > 100 µM | > 100 µM | > 100 µM
29 | CC(C)N(C(C)C)S(=O)(=O)C[C@]12CC[C@H](CC13OCC(CS(=O)(=O)c1ccccc1)O3)C2(C)C (some centres not stated) | > 100 µM | > 100 µM | > 100 µM | > 100 µM | > 100 µM | > 100 µM | > 100 µM | > 100 µM | > 80.3 µM | > 100 µM | > 100 µM
30 | ClCCCCCc1c2nc(c(CCCCCCl)c3ccc([nH]3)c(CCCCCCl)c3ccc([nH]3)c(CCCCCCl)c3nc1C=C3)C=C2 | > 100 µM | > 100 µM | > 100 µM | > 100 µM | > 100 µM | > 100 µM | > 100 µM | > 100 µM | > 100 µM | > 100 µM | > 100 µM
31 | CN1CC2CN(Cc3ccccc3)CCN2c2cccnc21 (configuration not stated) | > 100 µM | > 100 µM | > 100 µM | > 100 µM | > 100 µM | 87.9 µM | > 100 µM | > 100 µM | > 100 µM | > 100 µM | > 100 µM
32 | CC(=O)OC(Cc1c(O)c2c(C)cccc2oc1=O)C(C)(C)O (configuration not stated) | > 100 µM | > 100 µM | > 100 µM | > 100 µM | > 100 µM | > 100 µM | > 100 µM | > 100 µM | > 100 µM | > 100 µM | > 100 µM
33 | O=C(c1ccc(Cl)cc1)N(C(=S)OCCOc1ccccc1)c1ccccc1 | 35.1 µM | 75.6 µM | > 100 µM | 76.3 µM | 47.9 µM | 35.6 µM | 42.7 µM | 39.3 µM | 39.5 µM | 36.4 µM | 62.7 µM
34 | CCOC(=O)c1nnc2c(C#N)c(-c3ccccc3)c(C)n2c1N | 66.6 µM | > 100 µM | 85.7 µM | > 100 µM | > 100 µM | > 100 µM | > 100 µM | > 100 µM | 92.7 µM | > 100 µM | > 100 µM
35 | CN(C)c1ccc(C=C2C(=O)NC(=S)NC2=O)c2ccccc12 | > 100 µM | > 100 µM | 71.8 µM | > 100 µM | > 100 µM | > 100 µM | > 100 µM | > 100 µM | > 100 µM | > 100 µM | > 100 µM
36 | COC(=O)CC1c2ccccc2N2C(=O)Cc3c([nH]c4ccccc34)C12 (configuration not stated) | > 100 µM | > 100 µM | 96.2 µM | > 100 µM | > 100 µM | > 100 µM | > 100 µM | > 100 µM | > 100 µM | > 100 µM | > 100 µM
37 | CCN1CN(c2ccccc2)C2(CCN(CC(CC3OCCO3)c3ccc(F)cc3)CC2)C1=O (configuration not stated) | 47.1 µM | > 44.2 µM | > 64.1 µM | > 92.7 µM | > 30.5 µM | 5.69 µM | > 43.1 µM | > 100 µM | 13.8 µM | 25.4 µM | 33 µM
